Measured values from patent US10183943B2, “Heterocyclic compounds and their use in preventing or treating bacterial infections” (MUTABILIS, priority 2015, dated 2019).
Structures can show the parent of a compound that is named as a salt.

Columns and labels:
[1] = molecular target: T1, CTX-M-15 (Escherichia coli, UniProt Q9EXV5); assay: β-lactamase inhibitory activity, determination of IC50 (nitrocefin hydrolysis); format: biochemical; conditions: class (A); nitrocefin 200 μM, 30 min pre-incubation; read-out: IC50 β-lactamase CTX-M-15
T1 construct: made in house; host or cells: E. coli
T1 sequence (Q9EXV5 entry or part of it): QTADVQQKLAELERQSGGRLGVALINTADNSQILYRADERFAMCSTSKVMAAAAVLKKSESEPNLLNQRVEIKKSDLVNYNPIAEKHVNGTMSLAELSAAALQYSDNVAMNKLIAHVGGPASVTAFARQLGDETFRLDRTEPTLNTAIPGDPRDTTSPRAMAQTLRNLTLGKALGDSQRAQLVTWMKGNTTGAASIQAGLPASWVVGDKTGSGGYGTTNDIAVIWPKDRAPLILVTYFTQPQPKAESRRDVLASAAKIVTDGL

[2] = molecular target: T2, TEM-1 (Escherichia coli, UniProt P62593); assay: as above; format: biochemical
T2 construct: made in house; host or cells: E. coli
T2 sequence (P62593 24-286 limits assumed): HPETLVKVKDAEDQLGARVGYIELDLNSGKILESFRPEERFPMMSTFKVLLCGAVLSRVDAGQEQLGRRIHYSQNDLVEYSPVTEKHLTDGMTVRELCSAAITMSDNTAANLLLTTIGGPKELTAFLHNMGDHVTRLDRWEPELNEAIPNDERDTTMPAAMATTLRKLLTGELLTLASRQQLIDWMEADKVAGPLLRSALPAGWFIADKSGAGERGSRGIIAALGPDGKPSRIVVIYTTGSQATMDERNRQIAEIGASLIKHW

[3] = tested on: E. cloacae UFR51 (SHV-12, IMP-8); assay: MIC of ceftazidime (CAZ) in combination with compounds at 4 μg/mL, broth microdilution; format: cell-based; conditions: strain UFR51; MIC of CAZ with compound fixed at 4 μg/mL
Summary of the method: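 Compounds were dissolved in DMSO and spotted onto plates. Log-phase cells were then added at 5×10^5 cfu/mL in cation-adjusted Mueller-Hinton broth, incubated 16-20 h at 35° C, and the MIC was scored visually as the lowest growth-inhibiting concentration.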

[4] = molecular target: AmpC (P99) (Enterobacter cloacae, UniProt P05364); assay: β-lactamase inhibitory activity, determination of IC50 (nitrocefin hydrolysis)
AmpC (P99), sequence (P05364 21-381): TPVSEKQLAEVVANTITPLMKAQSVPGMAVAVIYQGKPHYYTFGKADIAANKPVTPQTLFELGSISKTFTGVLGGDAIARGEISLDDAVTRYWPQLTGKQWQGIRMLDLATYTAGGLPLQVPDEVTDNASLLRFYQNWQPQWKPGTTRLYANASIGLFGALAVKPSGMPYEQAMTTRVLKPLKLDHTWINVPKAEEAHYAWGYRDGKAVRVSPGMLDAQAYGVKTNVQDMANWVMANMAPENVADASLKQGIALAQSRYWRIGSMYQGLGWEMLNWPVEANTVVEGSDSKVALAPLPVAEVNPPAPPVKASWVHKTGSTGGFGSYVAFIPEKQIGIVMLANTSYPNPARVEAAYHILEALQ

[5] = molecular target: T3, OXA-15 (Pseudomonas aeruginosa, UniProt Q51574); assay: biochemical
T3 construct: made in house; host or cells: E. coli
T3 sequence (Q51574 22-275): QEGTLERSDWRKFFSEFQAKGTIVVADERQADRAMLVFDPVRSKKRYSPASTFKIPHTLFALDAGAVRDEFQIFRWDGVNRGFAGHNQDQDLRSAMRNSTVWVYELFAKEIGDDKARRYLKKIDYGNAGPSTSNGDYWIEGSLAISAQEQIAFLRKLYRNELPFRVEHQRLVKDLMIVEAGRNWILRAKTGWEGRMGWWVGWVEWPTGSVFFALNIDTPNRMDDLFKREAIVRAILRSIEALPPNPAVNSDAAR

[6] = tested on: E. cloacae P99 (AmpC); assay: MIC of compounds alone, broth microdilution; format: cell-based; conditions: Enterobacter cloacae; strain P99 (E. cloacae); read-out: MIC compounds of the invention alone
Summary of the method: (§1)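 Read-out: lowest compound concentration with no growth by visual inspection. CLSI M7-A7 broth microdilution, cation-adjusted Mueller-Hinton broth, inoculum 5×10^5 cfu/mL from log-phase culture, 16-20 h, 35° C, ambient air; compound tested without β-lactam.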

[7] = tested on: K. pneumoniae BAA-1898 (TEM-1, SHV-11, SHV-12, KPC-2); assay: MIC of compounds alone, broth microdilution; format: cell-based; conditions: Klebsiella pneumoniae, BAA1898; strain BAA-1898 (K. pneumoniae); read-out: MIC compounds of the invention alone
Summary of the method: as §1

[8] = tested on: E. coli UFR74 (SHV-1, DHA-1); assay: MIC of compounds alone, broth microdilution; format: cell-based; conditions: Escherichia coli; strain UFR74 (E. coli); read-out: MIC compounds of the invention alone
Summary of the method: as §1

[9] = tested on: E. coli UFR32 (TEM-1, VEB-1, OXA-10); assay: MIC of compounds alone, broth microdilution; format: cell-based; conditions: Escherichia coli; strain UFR32 (E. coli); read-out: MIC compounds of the invention alone
Summary of the method: as §1

[10] = tested on: E. coli RGN238 (OXA-1); assay: MIC of compounds alone, broth microdilution; format: cell-based; conditions: Escherichia coli; strain RGN238 (E. coli); read-out: MIC compounds of the invention alone
Summary of the method: as §1

[11] = tested on: E. coli UFR61O (TEM-1, KPC-2); assay: MIC of compounds alone, broth microdilution; format: cell-based; conditions: Escherichia coli; strain UFR61O (E. coli); read-out: MIC compounds of the invention alone
Summary of the method: as §1

[12] = tested on: K. pneumoniae UFR39 (CTX-M-15, NDM-1); assay: MIC of compounds alone, broth microdilution; format: cell-based; conditions: Klebsiella pneumoniae; strain UFR39 (K. pneumoniae); read-out: MIC compounds of the invention alone
Summary of the method: as §1

[13] = tested on: K. oxytoca UFR21 (TEM-1, CTX-M-15, OXA-48); assay: MIC of compounds alone, broth microdilution; format: cell-based; conditions: Klebsiella oxytoca, read-out: MIC compounds of the invention alone
Summary of the method: as §1

[14] = tested on: E. cloacae UFR51 (SHV-12, IMP-8); assay: MIC of compounds alone, broth microdilution; format: cell-based; conditions: Enterobacter cloacae; strain UFR51 (E. cloacae); read-out: MIC compounds of the invention alone
Summary of the method: as §1

[15] = tested on: K. pneumoniae UFR77 (CMY-2); assay: MIC of compounds alone, broth microdilution; format: cell-based; conditions: Klebsiella pneumoniae; strain UFR77 (K. pneumoniae); read-out: MIC compounds of the invention alone
Summary of the method: as §1

[16] = tested on: E. coli 131119 (TEM-1, OXA-48); assay: MIC of compounds alone, broth microdilution; format: cell-based; conditions: Escherichia coli; strain 131119 (E. coli); read-out: MIC compounds of the invention alone
Summary of the method: as §1

[17] = tested on: K. pneumoniae 6299 (TEM-1, SHV-11, OXA-163); assay: MIC of compounds alone, broth microdilution; format: cell-based; conditions: Klebsiella pneumoniae; strain 6299 (K. pneumoniae); read-out: MIC compounds of the invention alone
Summary of the method: as §1

[18] = tested on: K. pneumoniae UFR24 (TEM-1, SHV-2, SHV-11, OXA-1, OXA-48, OXA-47); assay: MIC of compounds alone, broth microdilution; format: cell-based; conditions: Klebsiella pneumoniae; strain UFR24 (K. pneumoniae); read-out: MIC compounds of the invention alone
Summary of the method: as §1

[19] = tested on: E. coli UFR41 (TEM-1, CTX-M-15, CMY-2, OXA-1, NDM-4); assay: MIC of compounds alone, broth microdilution; format: cell-based; conditions: Escherichia coli, read-out: MIC compounds of the invention alone
Summary of the method: as §1

[20] = tested on: K. pneumoniae 160143 (TEM-1, SHV-1, CTX-M-15, KPC-2, OXA-1); assay: MIC of compounds alone, broth microdilution; format: cell-based; conditions: Klebsiella pneumoniae, read-out: MIC compounds of the invention alone
Summary of the method: as §1

[21] = tested on: E. coli UFR18 (CTX-M-15, OXA-204); assay: MIC of compounds alone, broth microdilution; format: cell-based; conditions: Escherichia coli; strain UFR18 (E. coli); read-out: MIC compounds of the invention alone
Summary of the method: as §1

[22] = tested on: P. aeruginosa CIP107051 (TEM-24); assay: MIC of compounds alone, broth microdilution; format: cell-based; conditions: Pseudomonas aeruginosa; strain CIP107051 (P. aeruginosa); read-out: MIC compounds of the invention alone
Summary of the method: as §1

[23] = tested on: K. pneumoniae 200047 (TEM-1, SHV-32, CTX-M-15, OXA-1); assay: MIC of compounds alone, broth microdilution; format: cell-based; conditions: Klebsiella pneumoniae, read-out: MIC compounds of the invention alone
Summary of the method: as §1

[24] = molecular target: T4, SHV-1 (Klebsiella pneumoniae, UniProt P0AD64); assay: β-lactamase inhibitory activity, determination of IC50 (nitrocefin hydrolysis); format: biochemical
T4 construct: made in house; host or cells: E. coli
T4 sequence (P0AD64 22-286): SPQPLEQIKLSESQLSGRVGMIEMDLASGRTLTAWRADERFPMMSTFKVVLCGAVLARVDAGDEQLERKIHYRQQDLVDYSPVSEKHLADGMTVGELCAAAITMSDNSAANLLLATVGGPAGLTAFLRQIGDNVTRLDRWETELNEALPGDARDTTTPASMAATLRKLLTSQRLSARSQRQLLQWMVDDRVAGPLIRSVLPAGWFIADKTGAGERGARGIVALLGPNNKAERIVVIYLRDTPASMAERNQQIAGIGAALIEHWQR

Compound	IC50 [1] [nM]	IC50 [2] [nM]	MIC combination of CAZ and compounds of the invention at 4 μg/mL [3] [µg/mL]	IC50 [4] [nM]	IC50 [5] [nM]	MIC [6] [µg/mL]	MIC [7] [µg/mL]	MIC [8] [µg/mL]	MIC [9] [µg/mL]	MIC [10] [µg/mL]	MIC [11] [µg/mL]	MIC [12] [µg/mL]	MIC [13] [µg/mL]	MIC [14] [µg/mL]	MIC [15] [µg/mL]	MIC [16] [µg/mL]	MIC [17] [µg/mL]	MIC [18] [µg/mL]	MIC [19] [µg/mL]	MIC [20] [µg/mL]	other results
O=C1N2CC=C(c3cnco3)C(C2)N1OS(=O)(=O)[O-].[Na+] (stereo not drawn) [Example 3, Sodium [4-(oxazol-5-yl)-7-oxo-1,6-diazabicyclo[3.2.1]oct-3-en-6-yl]sulfate]	2.8	3.4	<0.25	770	33	8	> 32	> 32	> 32	16	16	4	> 32	2	> 32	4	> 32	> 32	> 32	> 32	MIC [21]: 2 µg/mL; MIC [22]: > 32 µg/mL; MIC [23]: > 32 µg/mL; IC50 [24]: 6.9 nM
Cn1cc(C2=CCN3CC2N(OS(=O)(=O)[O-])C3=O)cnc1=O.[Na+] (stereo not drawn) [Example 15, Sodium [4-(N-methyl-2-oxo-pyrimidin-5-yl)-7-oxo-1,6-diazabicyclo[3.2.1]oct-3-en-6-yl] sulfate]	6.3	9.9	1	2000	290	2	> 32	> 32	1	16	8	0.5	32	0.5	> 32	4	> 32	> 32	> 32	> 32	MIC [21]: 0.5 µg/mL; MIC [22]: > 32 µg/mL; MIC [23]: > 32 µg/mL; IC50 [24]: 12 nM
Cn1ncc(C2=CCN3CC2N(OS(=O)(=O)[O-])C3=O)cc1=O.[Na+] (stereo not drawn) [Example 19, Sodium [4-(1-methyl-6-oxo-pyridazin-4-yl)-7-oxo-1,6-diazabicyclo[3.2.1]oct-3-en-6-yl] sulfate]	5.4	4	<0.25	940	75	8	> 32	> 32	> 32	32	> 32	4	> 32	4	> 32	2	> 32	> 32	> 32	> 32	MIC [21]: 4 µg/mL; MIC [22]: > 32 µg/mL; MIC [23]: > 32 µg/mL; IC50 [24]: 8.9 nM
O=C1N2CC(c3ncco3)=CC(C2)N1OS(=O)(=O)[O-].[Na+] (stereo not drawn) [Example 25, Sodium [3-(oxazol-2-yl)-7-oxo-1,6-diazabicyclo[3.2.1]oct-3-en-6-yl]sulfate]	15	3.8	<0.25	64	300	8	4	4	2	2	8	8	4	4	4	2	8	4	16	4	MIC [21]: 2 µg/mL; MIC [22]: > 128 µg/mL; MIC [23]: 2 µg/mL; IC50 [24]: 15 nM
NCc1cnc(C2=CC3CN(C2)C(=O)N3OS(=O)(=O)O)s1 (stereo not drawn) [Example 38, [3-[5-(aminomethyl)thiazol-2-yl]-7-oxo-1,6-diazabicyclo[3.2.1]oct-3-en-6-yl] hydrogen sulfate]	0.79	0.7	<0.25	31	280	4	> 32	32	32	32	2	0.5	16	1	32	4	> 32	> 32	1	8	MIC [21]: 0.5 µg/mL; MIC [22]: > 32 µg/mL; MIC [23]: 8 µg/mL; IC50 [24]: 4.3 nM
O=C1N2CC(c3ncco3)=C[C@H](C2)N1OS(=O)(=O)[O-].[Na+] [Example 44, Sodium [(5R)-3-(oxazol-2-yl)-7-oxo-1,6-diazabicyclo[3.2.1]oct-3-en-6-yl] sulfate]	0.61	0.69	<0.25	10	67	4	4	2	1	1	4	4	4	1	2	0.5	4	2	4	1	MIC [21]: 1 µg/mL; MIC [22]: > 32 µg/mL; MIC [23]: 1 µg/mL; IC50 [24]: 6 nM
